PubChem BioAssay (NCI)
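Results reflect a 48-hour exposure of cells in 96-well plates to compound at five concentrations. TGI marks complete inhibition of growth.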

Assays:
Test in all cases: NCI anticancer screen, dose series, 48 h
IGROV1 ovarian = test system: IGROV1 ovarian
COLO 205 colon = test system: COLO 205 colon
A498 renal = test system: A498 renal
U251 CNS = test system: U251 CNS
M14 melanoma = test system: M14 melanoma
NCI-H460 lung = test system: NCI-H460 lung
HOP-92 NSCLC = test system: HOP-92 NSCLC
MDA-MB-435 = test system: MDA-MB-435
MDA-MB-231 breast = test system: MDA-MB-231 breast
HCT-116 colon = test system: HCT-116 colon
786-0 renal = test system: 786-0 renal
ACHN renal = test system: ACHN renal
K-562 leukemia = test system: K-562 leukemia
SW-620 colon = test system: SW-620 colon
MDA-N = test system: MDA-N
SK-MEL-5 melanoma = test system: SK-MEL-5 melanoma
HS 578T breast = test system: HS 578T breast
RPMI-8226 leukemia = test system: RPMI-8226 leukemia

Structure (SMILES) | TGI (IGROV1 ovarian) [µM] | TGI (COLO 205 colon) [µM] | TGI (A498 renal) [µM] | TGI (U251 CNS) [µM] | TGI (M14 melanoma) [µM] | TGI (NCI-H460 lung) [µM] | TGI (HOP-92 NSCLC) [µM] | TGI (MDA-MB-435) [µM] | TGI (MDA-MB-231 breast) [µM] | TGI (HCT-116 colon) [µM] | TGI (786-0 renal) [µM] | TGI (ACHN renal) [µM] | TGI (K-562 leukemia) [µM] | TGI (SW-620 colon) [µM] | TGI (MDA-N) [µM] | TGI (SK-MEL-5 melanoma) [µM] | TGI (HS 578T breast) [µM] | TGI (RPMI-8226 leukemia) [µM]
Clc1cccc(-c2nc3cccc4c3n2Cc2ncccc2-4)c1 | > 100 | > 100 | > 100 | > 100 | > 100 | > 100 | > 100 | > 100 | > 100 | > 100 | > 100 | > 100 | > 100 | > 100 | > 100 | – | – | –
S=C1NC2=C(CSC/C2=C\c2ccc(Cl)cc2)C(c2ccc(Cl)cc2)N1 (stereo not given) | > 100 | 32.7 | – | > 100 | – | > 100 | 88.4 | – | > 100 | > 100 | 84 | > 100 | > 100 | > 100 | > 100 | 37.3 | > 100 | 94.5
C=C(Cl)/C(=C\Cl)CCC(Cl)C(C)C (stereo not given) (tested in a mixture with another compound) | 28.4 | 54.6 | 34.6 | 30.1 | 32.7 | 32.9 | 28.6 | 28.8 | 30.8 | 29.8 | 29.5 | 30.4 | > 100 | 7.5 | 30.4 | 27.6 | 31.9 | –
COc1cc(S(=O)(=O)Nc2ccc(-c3csc(N4C(=O)C(C)SC4c4cccs4)n3)cc2)ccc1Cl (stereo not given) | > 100 | 49.4 | > 100 | – | > 100 | – | > 100 | > 100 | – | > 100 | > 100 | > 100 | > 100 | > 100 | – | > 100 | > 100 | > 100
C[N+](C)(C)CC(=O)N/N=C(\Cc1nc2ccc([N+](=O)[O-])cc2[nH]c1=O)C(=O)Nc1nc2ccc([N+](=O)[O-])cc2s1 | > 100 | > 100 | > 100 | > 100 | > 100 | > 100 | > 100 | > 100 | > 100 | > 100 | > 100 | > 100 | > 100 | > 100 | – | > 100 | – | > 100
C=C(C)[C@H]1CC[C@@]23O[C@@H]2[C@@H](C[C@@]2(C)CC(=O)[C@H](CC(=O)C1)O2)OC(=O)[C@@]12CC[C@H](C(=C)C)CC(=O)C[C@H]4O[C@](C)(CC4=O)C[C@@H](OC3=O)[C@@H]1O2 | > 100 | > 100 | > 100 | > 100 | > 100 | – | > 100 | > 100 | > 100 | > 100 | > 100 | > 100 | > 100 | – | > 100 | > 100 | – | > 100
NS(=O)(=O)c1nnc(NS(=O)(=O)c2ccccc2[N+](=O)[O-])s1 | > 100 | > 100 | > 100 | > 100 | > 100 | > 100 | > 100 | > 100 | > 100 | > 100 | > 100 | > 100 | > 100 | > 100 | – | > 100 | > 100 | > 100
CC(O)CNC(=O)Nc1c(C(F)(F)F)cc(-c2ccccc2)[nH]c1=O (stereo not given) | > 100 | > 100 | > 100 | > 100 | > 100 | > 100 | > 100 | > 100 | > 100 | > 100 | > 100 | > 100 | > 100 | > 100 | – | > 100 | > 100 | –
COC(=O)/C=C/CCC#Cc1ccccc1C#CCC/C=C/C(=O)OC | 98.2 | 42.3 | > 100 | > 100 | > 100 | > 100 | 85.4 | > 100 | > 100 | > 100 | 53.2 | > 100 | 4.86 | > 100 | > 100 | – | – | –
CN(c1ccccc1)c1cc2ccccc2nn1 | > 100 | > 100 | > 100 | > 100 | > 100 | > 100 | > 100 | – | – | > 100 | > 100 | > 100 | > 100 | > 100 | – | > 100 | – | > 100
CCOC(=O)CN1C(=O)NC(C)(c2ccccc2)C1=O (stereo not given) | > 100 | > 100 | > 100 | > 100 | > 100 | – | > 100 | > 100 | > 100 | > 100 | > 100 | > 100 | > 100 | > 100 | – | > 100 | > 100 | > 100
O=C(c1cscc1CCc1ccccc1)c1cscc1CCc1ccccc1 | > 100 | > 100 | > 100 | > 100 | > 100 | > 100 | – | > 100 | > 100 | > 100 | > 100 | > 100 | > 100 | > 100 | > 100 | > 100 | – | > 100
Nc1nc(SCC(=O)c2ccccc2)c2[nH]cnc2n1 | > 100 | > 100 | > 100 | > 100 | > 100 | > 100 | > 100 | – | – | > 100 | > 100 | > 100 | > 100 | > 100 | – | > 100 | – | > 100
